Experimental data published in US12606541B2, “PPARg modulators and methods of use” (Eisai R&D Management Co., Ltd., priority 2020, dated 2026).
Read-outs that look alike come from different tables or passages of the source.

Experiments:
UM-UC-9 engineered cells = assay: Cell proliferation / short-term viability assay, CellTiter-Glo 144 h; assay type: cell-based, human; settings: read-out: CTGlo 144 h UMUC9.5, G150
Procedure: Cell Seeding for Proliferation Assay
UM-UC-9 engineered cells were cultured in Dulbecco's Modified Eagle Medium (DMEM) supplemented with 10% FBS, 25 mM glucose (high glucose), 4.0 mM L-glutamine, 2.0 mM GlutaMAX™, 1.0 mM pyruvate, 1.0% non-essential amino acids (NEAA) in a 95% humidified incubator at 37° C. with 5% CO2. Cell banks of UM-UC-9 engineered assay-ready cells (ARCs) were prepared from a very active growth stage. Vials of ARCs containing approximately 5×10^6 cells per vial were stored in liquid nitrogen vapor phase cryostorage until use.
For making assay plates, ARCs were recovered from cryostorage, strained in a […] cell strainer, verified for cell viability >90% and counted using a cell counter (Cellometer Auto 1000, Nexelom). Each cell line was seeded into 384-well plates (50 μl/well) using DMEM medium at a density previously determined to be in log growth phase 7 days post-seeding (500 cells/well) using a bulk reagent dispenser (Multidrop™ Combi, Thermo Scientific) with a large-bore plastic-tip cassette pre-sanitized with 70% ethanol. One plate of cells was designated as the pretreatment time-zero (T0) control. Freshly seeded plates were allowed to sit lidded for 30 minutes within a biosafety cabinet for cells to settle distributed within the plate wells uniformly and then placed into an automated incubator (STX110, Liconic) at 37° C., 5% CO2, and 95% relative humidity.
Preparation of Test Compound in Assay-Ready Plate
Compounds were stored in a low-temperature sample archive as 10 mM dimethyl sulfoxide (DMSO) solutions at −20° C. under reduced humidity (−45° C. dew point) and protected from light. All samples in the automated archive are stored in 2D barcoded polypropylene tubes, tracked through a laboratory information management system (LIMS), and have been verified for identity and purity by NMR (Chemistry, H3 Biomedicine) and by LCMS (Analytical Chemistry, H3 Biomedicine) at the time of sample registration. Identity by mass matching and purity are again verified at the time of sample request fulfillment by redundant LCMS methods (acidic and basic separation protocols; Analytical Chemistry, H3 Biomedicine). Samples retrieved from low-temperature archive storage were solubilized by heated sonication (Bransonic® Ultrasonic Bath, Branson), transferred (Microlab Starlet, Hamilton) and serially-diluted (Viaflo Assist, Integra) by low-volume liquid handlers, and tracked in LIMS by automation log files to create a ID barcoded master dose-response plate (MDR) to serve as a standard source for all assay-ready plates (ARP) used within an experiment. ARPs prepared by acoustic transfer (ATS-100, EDC) of nL volumes from the MDR source were heat-sealed (PlateLoc, Agilent) and stored at −20° C. prior to use (<7 days from production). Tracking of liquid transfers via acoustic dispenser log files were used to update the LIMS system for all ARP plate maps.
Measurement of Pretreatment Control Cells and Sample Anti-Proliferative Effects on Treated Cells
On day 0 (pretreatment cells) or day 7 (treated cells), a cell proliferation assay was performed using an automated robotic assay platform (ACell, High-Res Biosolutions). Cell ARP's were removed from incubation, their plate lid discarded, and using a bulk reagent dispenser (Multidrop™ Combi, Thermo Scientific with a small-bore metal-tip cassette) 25 μL (1/2 volume) of Cell Titer-Glo® 2.0 Cell Viability Assay reagent (Promega) was added to wells of columns 1-23 (column 24 will be used as plate background or positive control). Cell ARP's were incubated at room temperature in an automation hotel position for a total of 1.0 minute while the next plate was delivered to the bulk reagent dispenser and then lid-free cell ARP's were returned to incubate at 37° C. for 2.5 hours. […]

His6-TEV-PPARγ-(234-505) = biological target: T1, His6-TEV-PPARγ-(234-505) (Homo sapiens, UniProt P37231); assay: TR-FRET Assay to Measure Co-R Peptide Recruitment to PPARγ; assay type: biochemical; settings: Co-R peptide (SMRT-ID2) recruitment; top final concentration 20 μM; read-out: TR-FRET i-Ag; AC50
T1 construct: The His6-TEV-PPARγ-(234-505) protein for assay was expressed and purified; TEV cleavage site (N); made in house
T1 sequence (P37231 234-505): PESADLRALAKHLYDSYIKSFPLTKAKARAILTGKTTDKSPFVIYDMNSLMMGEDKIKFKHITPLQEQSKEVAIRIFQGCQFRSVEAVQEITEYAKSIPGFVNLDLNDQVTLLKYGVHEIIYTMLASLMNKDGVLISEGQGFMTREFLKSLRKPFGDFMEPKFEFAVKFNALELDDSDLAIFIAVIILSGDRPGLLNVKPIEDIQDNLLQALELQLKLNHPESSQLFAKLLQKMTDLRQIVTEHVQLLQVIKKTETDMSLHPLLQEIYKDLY
How it was run: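 Corepressor recruitment is measured by adding terbium-labeled anti-His antibody and FITC SMRT-ID2 peptide, at 5 and 200 nM final, after a 20-minute room-temperature protein–compound incubation. After one further hour, signal is converted to percent response between DMSO and 500 nM T0070907 wells.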

AC50 (His6-TEV-PPARγ-(234-505)) [nM]	Structure (SMILES)	IC50 (UM-UC-9 engineered cells; Homo sapiens, UM-UC-9, 144 h) [nM]	IC50 (UM-UC-9 engineered cells) [nM]	IC50 (UM-UC-9 engineered cells; listed as 101a) [nM]
187	COc1cc(-c2cc(C(=O)N3CC[C@H](C(=O)NC4CCC5(CCCN5C5COC5)CC4)CC34CC4)n[nH]2)c(F)cn1 (stereo partly drawn) [Example 349, (S)-4-(5-(5-fluoro-2-methoxypyridin-4-yl)-1H-pyrazole-3-carbonyl)-N-(1-(oxetan-3-yl)-1-azaspiro[4.5]decan-8-yl)-4-azaspiro[2.5]octane-7-carboxamide]	836	–	–
887	COc1cc(-c2cc(C(=O)N3CCC(C(=O)NCc4cnc(C)o4)CC3)n[nH]2)c(Cl)cn1 [Example 136, 1-(5-(5-chloro-2-methoxypyridin-4-yl)-1H-pyrazole-3-carbonyl)-N-((2-methyloxazol-5-yl)methyl)piperidine-4-carboxamide]	6100	–	–
6.5	COc1cc(-c2cc(C(=O)N3CCC(C(=O)NC4CCC(OCC(C)OC)(C(F)(F)F)CC4)CC34CC4)n[nH]2)c(F)cn1 (single isomer, unassigned) [Example 340-A]	–	4.4	–
735	COc1cc(-c2cc(C(=O)N3CCC(C(=O)NCC4COC(C)(C)O4)CC3)n[nH]2)c(Cl)cn1 (racemic) [Example 185, 1-(5-(5-chloro-2-methoxypyridin-4-yl)-1H-pyrazole-3-carbonyl)-N-((2,2-dimethyl-1,3-dioxolan-4-yl)methyl)piperidine-4-carboxamide]	1550	–	–
404	COc1cc(-c2cc(C(=O)N3CCC(C(=O)NCc4ccc5c(c4)CC(=O)N5C)CC3)n[nH]2)c(Cl)cn1 [Example 235, 1-(5-(5-chloro-2-methoxypyridin-4-yl)-1H-pyrazole-3-carbonyl)-N-((1-methyl-2-oxoindolin-5-yl)methyl)piperidine-4-carboxamide]	2360	–	–
8	COc1cc(-c2cc(C(=O)N3CC[C@H](C(=O)NC4CCN(CC(F)(F)CO)C4)CC34CC4)n[nH]2)c(F)cn1 (single isomer, unassigned) [Example 459-A]	–	275	–
–	COc1cc(-c2cc(C(=O)N3CCC(C(=O)NC4CCC(C)CC4)CC3)n[nH]2)c(Cl)cn1 (single isomer, unassigned) [Example 101-A]	–	–	> 10000
–	COc1cnc(CNC(=O)[C@H]2CCN(C(=O)c3cc(-c4cc(OC)ncc4F)[nH]n3)C3(CC3)C2)c(C(F)(F)F)c1 [Example 527, (S)-4-(5-(5-fluoro-2-methoxypyridin-4-yl)-1H-pyrazole-3-carbonyl)-N-((5-methoxy-3-(trifluoromethyl)pyridin-2-yl)methyl)-4-azaspiro[2.5]octane-7-carboxamide]	5	–	–
–	COc1cc(-c2cc(C(=O)N3CC[C@H](C(=O)NCc4ncc(C#N)cn4)CC34CC4)n[nH]2)c(F)cn1 [Example 456, (S)—N-((5-cyanopyrimidin-2-yl)methyl)-4-(5-(5-fluoro-2-methoxypyridin-4-yl)-1H-pyrazole-3-carbonyl)-4-azaspiro[2.5]octane-7-carboxamide]	312	–	–
–	COc1cc(-c2cc(C(=O)N3CC[C@H](C(=O)NCc4nc(C)cnc4Cl)CC34CC4)n[nH]2)c(F)cn1 [Example 451, (S)—N-((3-chloro-6-methylpyrazin-2-yl)methyl)-4-(5-(5-fluoro-2-methoxypyridin-4-yl)-1H-pyrazole-3-carbonyl)-4-azaspiro[2.5]octane-7-carboxamide]	9.6	–	–
–	COc1cc(-c2cc(C(=O)N3CCC(C(=O)NC4CCC(C(F)(F)F)CC4)CC3)n[nH]2)c(Cl)cn1 (mixture of isomers) [Example 118, 1-[5-(5-chloro-2-methoxypyridin-4-yl)-1H-pyrazole-3-carbonyl]-N-[(1s,4s)-4-(trifluoromethyl)cyclohexyl]piperidine-4-carboxamide and 1-[5-(5-chloro-2-methoxypyridin-4-yl)-1H-pyrazole-3-carbonyl]-N-[(1r,4r)-4-(trifluoromethyl)cyclohexyl]piperidine-4-carboxamide]	–	121	–
–	COc1cc(-c2cc(C(=O)N3CCC(C(=O)NC(C)c4cccc(Cl)c4)CC3)n[nH]2)c(Cl)cn1 (racemic) [Example 115, (R)-1-[5-(5-chloro-2-methoxypyridin-4-yl)-1H-pyrazole-3-carbonyl]-N-[1-(3-chlorophenyl)ethyl]piperidine-4-carboxamide and (S)-1-[5-(5-chloro-2-methoxypyridin-4-yl)-1H-pyrazole-3-carbonyl]-N-[1-(3-chlorophenyl)ethyl]piperidine-4-carboxamide]	–	428	–
–	COc1cc(-c2cc(C(=O)N3[C@@H]4CC[C@H]3C[C@H](C(=O)NC3CCC(C#N)(C(F)(F)F)CC3)C4)n[nH]2)c(F)cn1 (stereo partly drawn) [Example 438, (1R,3s,5S)—N-(4-cyano-4-(trifluoromethyl)cyclohexyl)-8-(5-(5-fluoro-2-methoxypyridin-4-yl)-1H-pyrazole-3-carbonyl)-8-azabicyclo[3.2.1]octane-3-carboxamide]	1150	–	–

Structure (SMILES)	AC50 (His6-TEV-PPARγ-(234-505)) [nM]	IC50 (UM-UC-9 engineered cells; Homo sapiens, UM-UC-9, 144 h) [nM]	IC50 (UM-UC-9 engineered cells) [nM]	IC50 (UM-UC-9 engineered cells; listed as 101a) [nM]
COc1cc(-c2cc(C(=O)N3CCC(C(=O)Nc4cnn5ccc(C6CC6C#N)nc45)CC34CC4)n[nH]2)c(F)cn1 (mixture of isomers) [Example 466, (S)—N-(5-((1S,2S)-2-cyanocyclopropyl)pyrazolo[1,5-a]pyrimidin-3-yl)-4-(5-(5-fluoro-2-methoxypyridin-4-yl)-1H-pyrazole-3-carbonyl)-4-azaspiro[2.5]octane-7-carboxamide and (S)—N-(5-((1R,2R)-2-cyanocyclopropyl)pyrazolo[1,5-a]pyrimidin-3-yl)-4-(5-(5-fluoro-2-methoxypyridin-4-yl)-1H-pyrazole-3-carbonyl)-4-azaspiro[2.5]octane-7-carboxamide]	5.1	–	51.2	–
COc1cnc(CNC(=O)C2CCN(C(=O)c3cc(-c4cc(C)ncc4F)[nH]n3)C3(CC3)C2)c(Cl)c1 (racemic) [Example 484, (S)—N-((3-chloro-5-methoxypyridin-2-yl)methyl)-4-(5-(5-fluoro-2-methylpyridin-4-yl)-1H-pyrazole-3-carbonyl)-4-azaspiro[2.5]octane-7-carboxamide and (R)—N-((3-chloro-5-methoxypyridin-2-yl)methyl)-4-(5-(5-fluoro-2-methylpyridin-4-yl)-1H-pyrazole-3-carbonyl)-4-azaspiro[2.5]octane-7-carboxamide]	3.8	–	20.5	–
COc1cc(-c2cc(C(=O)N3CCC(C(=O)NC4CCN(CC5(O)COC5)C4)CC34CC4)n[nH]2)c(F)cn1 (mixture of isomers) [Example 454, (S)-4-(5-(5-fluoro-2-methoxypyridin-4-yl)-1H-pyrazole-3-carbonyl)-N—((R)-1-((3-hydroxyoxetan-3-yl)methyl)pyrrolidin-3-yl)-4-azaspiro[2.5]octane-7-carboxamide and (S)-4-(5-(5-fluoro-2-methoxypyridin-4-yl)-1H-pyrazole-3-carbonyl)-N—((S)-1-((3-hydroxyoxetan-3-yl)methyl)pyrrolidin-3-yl)-4-azaspiro[2.5]octane-7-carboxamide]	196	–	999	–
